{"source": "ChEMBL document CHEMBL4665648", "about": "“Potent and selective inhibitors of receptor-interacting protein kinase 1 that lack an aromatic back pocket group” (Bioorg Med Chem Lett, 2019)", "key": {"[1]": {"molecular_target": "Phosphorylase b kinase gamma catalytic chain, skeletal muscle/heart isoform (Homo sapiens) (UniProt Q16816)", "sequence (Q16816 whole entry, looked up, canonical isoform)": "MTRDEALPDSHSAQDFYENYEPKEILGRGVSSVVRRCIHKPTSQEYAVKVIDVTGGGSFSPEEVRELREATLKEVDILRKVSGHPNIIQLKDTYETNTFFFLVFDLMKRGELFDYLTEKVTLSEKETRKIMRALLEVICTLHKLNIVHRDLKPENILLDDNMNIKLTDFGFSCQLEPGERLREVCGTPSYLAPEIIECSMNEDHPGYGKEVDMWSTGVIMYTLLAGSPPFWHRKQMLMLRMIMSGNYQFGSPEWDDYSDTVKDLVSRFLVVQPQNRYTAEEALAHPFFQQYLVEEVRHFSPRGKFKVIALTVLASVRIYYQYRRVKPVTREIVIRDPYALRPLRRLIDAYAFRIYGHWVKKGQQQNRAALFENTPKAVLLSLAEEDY", "assay": "Inhibition of recombinant human GST-tagged full length PHKG1 expressed in baculovirus expression system using Ser/Thr 07 as substrate at 10 uM incubated for 60 mins by Z'-lyte assay relative to control"}, "[2]": {"molecular_target": "Dual specificity protein kinase CLK4 (Homo sapiens) (UniProt Q9HAZ1)", "assay": "Inhibition of tracer 236 binding to recombinant human GST-tagged full length CLK4 expressed in baculovirus expression system at 10 uM incubated for 60 mins by Lanthascreen assay relative to control"}, "[3]": {"molecular_target": "Calcium/calmodulin-dependent protein kinase kinase 1 (Homo sapiens) (UniProt Q8N5S9)", "sequence (Q8N5S9 whole entry, looked up)": "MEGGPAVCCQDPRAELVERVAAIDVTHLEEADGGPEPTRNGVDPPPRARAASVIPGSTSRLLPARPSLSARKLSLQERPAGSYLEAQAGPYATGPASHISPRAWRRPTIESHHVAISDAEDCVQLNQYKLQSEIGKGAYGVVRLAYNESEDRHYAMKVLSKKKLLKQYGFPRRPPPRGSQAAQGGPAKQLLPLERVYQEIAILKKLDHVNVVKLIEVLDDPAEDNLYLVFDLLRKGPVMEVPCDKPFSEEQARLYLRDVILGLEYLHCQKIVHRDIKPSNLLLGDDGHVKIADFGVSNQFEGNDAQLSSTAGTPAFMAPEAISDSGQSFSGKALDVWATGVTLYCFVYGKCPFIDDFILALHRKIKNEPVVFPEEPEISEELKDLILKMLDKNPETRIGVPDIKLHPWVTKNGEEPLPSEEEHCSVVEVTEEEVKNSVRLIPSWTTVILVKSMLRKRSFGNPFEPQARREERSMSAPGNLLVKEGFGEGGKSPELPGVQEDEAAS", "assay": "Inhibition of tracer 236 binding to recombinant human GST-tagged full length CAMKK1 expressed in Escherichia coli expression system at 10 uM incubated for 60 mins by Lanthascreen assay relative to control"}, "[4]": {"molecular_target": "Ribosomal protein S6 kinase alpha-5 (Homo sapiens) (UniProt O75582)", "assay": "Inhibition of recombinant human GST-tagged full length MSK1 expressed in baculovirus expression system using Ser/Thr 01 as substrate at 10 uM incubated for 60 mins by Z'-lyte assay relative to control"}, "[5]": {"molecular_target": "Tyrosine-protein kinase Lyn (Homo sapiens) (UniProt P07948)", "assay": "Inhibition of LYN (unknown origin) by selectscreen kinase assay", "conditions": "dose 10.0 µM, time 60.0 min"}, "[6]": {"molecular_target": "Rho-associated protein kinase 1 (Homo sapiens) (UniProt Q13464)", "assay": "Inhibition of recombinant human GST-tagged ROCK1 (1 to 535 residues) expressed in baculovirus expression system using Ser/Thr 07 as substrate at 10 uM incubated for 60 mins by Z'-Lyte assay relative to control"}, "[7]": {"molecular_target": "Vascular endothelial growth factor receptor 3 (Homo sapiens) (UniProt P35916)", "assay": "Inhibition of recombinant human GST-tagged FLT4 (800 to 1297 residues) expressed in baculovirus expression system using Tyr 04 as substrate at 10 uM incubated for 60 mins by Z'-Lyte assay relative to control"}, "[8]": {"molecular_target": "Homeodomain-interacting protein kinase 2 (Homo sapiens) (UniProt Q9H2X6)", "assay": "Inhibition of recombinant human N-terminal GST-tagged HIPK2 expressed in baculovirus expression system using Ser/Thr 09 as substrate at 10 uM incubated for 60 mins by Z'-Lyte assay relative to control"}, "[9]": {"molecular_target": "G protein-coupled receptor kinase 3 (Homo sapiens) (UniProt P35626)", "assay": "Inhibition of recombinant human GST-tagged full length GRK3 expressed in baculovirus expression system using Ser/Thr 16 as substrate at 10 uM incubated for 60 mins by Z'-Lyte assay relative to control"}, "[10]": {"molecular_target": "Tyrosine-protein kinase Yes (Homo sapiens) (UniProt P07947)", "sequence (P07947 2-543 limits assumed)": "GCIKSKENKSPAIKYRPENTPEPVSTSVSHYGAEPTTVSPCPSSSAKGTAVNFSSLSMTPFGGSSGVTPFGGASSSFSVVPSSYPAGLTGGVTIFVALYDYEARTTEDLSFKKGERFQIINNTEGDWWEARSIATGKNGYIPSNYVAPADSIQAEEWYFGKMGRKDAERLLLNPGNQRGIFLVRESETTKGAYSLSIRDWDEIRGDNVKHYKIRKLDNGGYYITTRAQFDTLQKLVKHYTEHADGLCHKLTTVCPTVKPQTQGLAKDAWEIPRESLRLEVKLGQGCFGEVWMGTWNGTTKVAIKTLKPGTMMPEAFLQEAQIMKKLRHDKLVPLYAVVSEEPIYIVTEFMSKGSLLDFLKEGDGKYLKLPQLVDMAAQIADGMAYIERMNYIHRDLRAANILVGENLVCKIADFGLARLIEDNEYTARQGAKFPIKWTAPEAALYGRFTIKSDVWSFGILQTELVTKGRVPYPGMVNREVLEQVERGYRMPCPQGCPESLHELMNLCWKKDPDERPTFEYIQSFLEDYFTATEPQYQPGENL", "assay": "Inhibition of recombinant human GST-tagged full length YES expressed in baculovirus expression system using Tyr 02 as substrate at 10 uM incubated for 60 mins by Z'-Lyte assay relative to control"}, "[11]": {"assay": "Inhibition of necroptosis in mouse L929 cells assessed as reduction in TNFalpha/BV6/zVAD-fmk-induced cell death incubated for 18 hrs by Cell Titer Glo luminescent cell viability assay", "assay_type": "functional, cell-based", "conditions": "L929, 18 h"}, "[12]": {"molecular_target": "Serine/threonine-protein kinase MARK1 (Homo sapiens) (UniProt Q9P0L2)", "assay": "Inhibition of recombinant human GST-tagged full length MARK1 expressed in baculovirus expression system using Ser/Thr 21 as substrate at 10 uM incubated for 60 mins by Z'-lyte assay relative to control"}, "[13]": {"molecular_target": "Serine/threonine-protein kinase 16 (Homo sapiens) (UniProt O75716)", "assay": "Inhibition of tracer 236 binding to recombinant human His-tagged full length STK16 expressed in baculovirus expression system at 10 uM incubated for 60 mins by Lanthascreen assay relative to control"}, "[14]": {"molecular_target": "Serine/threonine-protein kinase Nek1 (Homo sapiens) (UniProt Q96PY6)", "assay": "Inhibition of recombinant human GST-tagged NEK1 (1 to 505 residues) expressed in baculovirus expression system using Ser/Thr 07 as substrate at 10 uM incubated for 60 mins by Z'-lyte assay relative to control"}, "[15]": {"molecular_target": "Cyclin-dependent kinase 1/cyclin B1 (Homo sapiens) (UniProt P06493+P14635)", "assay": "Inhibition of recombinant human His-tagged full length CDK1/Cyclin B expressed in baculovirus expression system using Ser/Thr 18 as substrate at 10 uM incubated for 60 mins by Z'-Lyte assay relative to control"}, "[16]": {"molecular_target": "Death-associated protein kinase 1 (Homo sapiens) (UniProt P53355)", "assay": "Inhibition of recombinant human N-terminal GST-tagged DAPK1 (1 to 363 residues) expressed in baculovirus expression system using ZIPtide as substrate at 10 uM incubated for 60 mins by Adapta assay relative to control"}, "[17]": {"molecular_target": "Leucine-rich repeat serine/threonine-protein kinase 2 (Homo sapiens) (UniProt Q5S007)", "sequence (Q5S007 whole entry, the tested form may be a part)": "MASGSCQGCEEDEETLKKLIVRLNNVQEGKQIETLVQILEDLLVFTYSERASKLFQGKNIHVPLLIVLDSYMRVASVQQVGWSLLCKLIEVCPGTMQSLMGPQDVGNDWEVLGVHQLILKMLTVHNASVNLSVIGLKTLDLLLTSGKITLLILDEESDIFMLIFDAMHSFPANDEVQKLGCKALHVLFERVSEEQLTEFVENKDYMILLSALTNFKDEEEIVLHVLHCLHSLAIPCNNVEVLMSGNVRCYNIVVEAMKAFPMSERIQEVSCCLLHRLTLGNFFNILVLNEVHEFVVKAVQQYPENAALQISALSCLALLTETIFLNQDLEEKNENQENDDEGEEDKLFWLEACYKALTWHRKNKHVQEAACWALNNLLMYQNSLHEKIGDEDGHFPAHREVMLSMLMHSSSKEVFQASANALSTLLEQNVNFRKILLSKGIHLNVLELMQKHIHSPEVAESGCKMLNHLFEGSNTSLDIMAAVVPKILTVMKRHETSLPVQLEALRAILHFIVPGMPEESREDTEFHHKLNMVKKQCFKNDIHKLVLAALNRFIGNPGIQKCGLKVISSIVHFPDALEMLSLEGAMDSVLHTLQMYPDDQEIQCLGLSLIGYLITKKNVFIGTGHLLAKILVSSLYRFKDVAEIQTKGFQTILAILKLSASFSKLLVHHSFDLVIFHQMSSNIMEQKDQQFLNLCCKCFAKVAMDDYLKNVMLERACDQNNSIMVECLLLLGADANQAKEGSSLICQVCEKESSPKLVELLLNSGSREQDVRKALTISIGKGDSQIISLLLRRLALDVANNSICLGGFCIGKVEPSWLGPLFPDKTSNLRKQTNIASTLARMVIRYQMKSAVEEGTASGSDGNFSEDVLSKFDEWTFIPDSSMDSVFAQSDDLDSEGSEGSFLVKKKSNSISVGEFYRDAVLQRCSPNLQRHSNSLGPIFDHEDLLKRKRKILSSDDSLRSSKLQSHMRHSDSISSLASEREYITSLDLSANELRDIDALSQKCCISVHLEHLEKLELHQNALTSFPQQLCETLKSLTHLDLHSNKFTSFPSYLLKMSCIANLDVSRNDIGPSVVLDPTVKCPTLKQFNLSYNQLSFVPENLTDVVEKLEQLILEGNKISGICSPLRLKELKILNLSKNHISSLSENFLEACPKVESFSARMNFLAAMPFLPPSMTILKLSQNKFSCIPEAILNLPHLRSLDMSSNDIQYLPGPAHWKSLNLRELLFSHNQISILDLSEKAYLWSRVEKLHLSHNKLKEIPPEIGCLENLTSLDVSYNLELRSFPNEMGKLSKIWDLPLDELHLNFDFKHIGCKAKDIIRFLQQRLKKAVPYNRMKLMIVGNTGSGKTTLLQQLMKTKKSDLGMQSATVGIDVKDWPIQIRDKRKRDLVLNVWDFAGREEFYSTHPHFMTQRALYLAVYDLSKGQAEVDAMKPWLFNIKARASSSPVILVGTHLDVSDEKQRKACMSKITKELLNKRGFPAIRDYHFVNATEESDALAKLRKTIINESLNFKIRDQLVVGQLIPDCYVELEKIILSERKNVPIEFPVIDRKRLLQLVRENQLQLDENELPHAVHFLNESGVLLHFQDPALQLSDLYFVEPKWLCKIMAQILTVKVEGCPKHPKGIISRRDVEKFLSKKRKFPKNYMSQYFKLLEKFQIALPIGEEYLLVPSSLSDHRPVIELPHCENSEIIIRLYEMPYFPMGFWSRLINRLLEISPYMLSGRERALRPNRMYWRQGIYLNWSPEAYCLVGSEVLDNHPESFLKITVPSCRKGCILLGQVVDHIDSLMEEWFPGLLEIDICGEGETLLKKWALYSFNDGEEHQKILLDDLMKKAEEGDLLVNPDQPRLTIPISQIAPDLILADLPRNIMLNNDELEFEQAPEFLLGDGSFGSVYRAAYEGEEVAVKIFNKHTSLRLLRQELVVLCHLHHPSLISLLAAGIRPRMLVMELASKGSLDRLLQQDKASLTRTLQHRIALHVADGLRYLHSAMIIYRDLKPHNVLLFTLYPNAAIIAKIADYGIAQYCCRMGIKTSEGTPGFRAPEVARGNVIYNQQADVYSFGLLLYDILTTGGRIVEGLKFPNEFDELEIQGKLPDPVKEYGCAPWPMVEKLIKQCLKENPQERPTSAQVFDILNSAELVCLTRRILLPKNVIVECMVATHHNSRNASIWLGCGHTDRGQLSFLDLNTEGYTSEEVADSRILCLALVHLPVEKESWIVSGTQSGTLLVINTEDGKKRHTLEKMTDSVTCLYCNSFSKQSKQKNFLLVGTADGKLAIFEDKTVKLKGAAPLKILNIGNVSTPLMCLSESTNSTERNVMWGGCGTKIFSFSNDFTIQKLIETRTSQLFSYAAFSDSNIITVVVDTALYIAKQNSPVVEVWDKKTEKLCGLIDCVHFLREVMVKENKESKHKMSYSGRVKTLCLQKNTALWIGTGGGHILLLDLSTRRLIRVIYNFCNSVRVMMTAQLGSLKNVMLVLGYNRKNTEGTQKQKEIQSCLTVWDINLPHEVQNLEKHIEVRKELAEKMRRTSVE", "assay": "Inhibition of recombinant human GST-tagged LRRK2 (970 to 2527 residues) expressed in baculovirus expression system using LRRKtide as substrate at 10 uM incubated for 60 mins by Adapta assay relative to control"}, "[18]": {"molecular_target": "Serine/threonine-protein kinase Sgk3 (Homo sapiens) (UniProt Q96BR1)", "sequence (Q96BR1 whole entry, the tested form may be a part)": "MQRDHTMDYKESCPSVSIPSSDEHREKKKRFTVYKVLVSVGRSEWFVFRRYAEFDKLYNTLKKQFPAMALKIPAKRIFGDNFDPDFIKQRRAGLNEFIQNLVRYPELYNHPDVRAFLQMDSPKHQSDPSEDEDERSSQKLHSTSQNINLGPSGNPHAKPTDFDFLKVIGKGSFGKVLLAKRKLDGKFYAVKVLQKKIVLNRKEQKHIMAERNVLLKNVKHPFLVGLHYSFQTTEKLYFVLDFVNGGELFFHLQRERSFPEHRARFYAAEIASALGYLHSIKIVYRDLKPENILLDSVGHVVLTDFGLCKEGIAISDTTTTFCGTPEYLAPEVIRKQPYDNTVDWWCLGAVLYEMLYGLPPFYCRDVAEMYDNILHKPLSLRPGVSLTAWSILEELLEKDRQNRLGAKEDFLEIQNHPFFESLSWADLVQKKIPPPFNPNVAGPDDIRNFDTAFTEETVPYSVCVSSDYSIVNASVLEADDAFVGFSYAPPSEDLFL", "assay": "Inhibition of recombinant human GST-tagged full length SGK3 (87 to 496 residues) expressed in baculovirus expression system using Ser/Thr 06 as substrate at 10 uM incubated for 60 mins by Z'-Lyte assay relative to control"}, "[19]": {"molecular_target": "Mitogen-activated protein kinase kinase kinase 5 (Homo sapiens) (UniProt Q99683)", "assay": "Inhibition of tracer 236 binding to recombinant human GST-tagged full length ASK1 expressed in baculovirus expression system at 10 uM incubated for 60 mins by Lanthascreen assay relative to control"}, "[20]": {"molecular_target": "Casein kinase I isoform delta (Homo sapiens) (UniProt P48730)", "sequence (P48730 whole entry, looked up, canonical isoform)": "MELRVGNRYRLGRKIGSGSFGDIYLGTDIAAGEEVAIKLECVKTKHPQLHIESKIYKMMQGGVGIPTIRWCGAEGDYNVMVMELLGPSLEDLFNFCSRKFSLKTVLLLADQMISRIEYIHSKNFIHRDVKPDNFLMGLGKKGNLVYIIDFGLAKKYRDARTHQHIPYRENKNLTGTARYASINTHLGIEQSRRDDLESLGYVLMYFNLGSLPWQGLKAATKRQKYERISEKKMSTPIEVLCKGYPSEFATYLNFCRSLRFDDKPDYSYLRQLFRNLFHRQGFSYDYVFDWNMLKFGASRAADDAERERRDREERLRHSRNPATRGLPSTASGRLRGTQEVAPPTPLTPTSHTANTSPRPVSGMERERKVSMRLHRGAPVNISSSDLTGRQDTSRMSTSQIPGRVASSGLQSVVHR", "assay": "Inhibition of recombinant human GST-tagged full length CK1delta expressed in baculovirus expression system using Ser/Thr 11 as substrate at 10 uM incubated for 60 mins by Z'-Lyte assay relative to control"}, "[21]": {"molecular_target": "Homeodomain-interacting protein kinase 1 (Homo sapiens) (UniProt Q86Z02)", "assay": "Inhibition of recombinant human N-terminal GST-tagged HIPK1 (158 to 555 residues) expressed in baculovirus expression system using Ser/Thr 09 as substrate at 10 uM incubated for 60 mins by Z'-Lyte assay relative to control"}, "[22]": {"molecular_target": "SRSF protein kinase 1 (Homo sapiens) (UniProt Q96SB4)", "assay": "Inhibition of recombinant human His-tagged full length SRPK1 expressed in baculovirus expression system using Ser/Thr 18 as substrate at 10 uM incubated for 60 mins by Z'-Lyte assay relative to control"}, "[23]": {"molecular_target": "Testis-specific serine/threonine-protein kinase 1 (Homo sapiens) (UniProt Q9BXA7)", "assay": "Inhibition of recombinant human His-tagged full length TSSK1 expressed in baculovirus expression system using Ser/Thr 04 as substrate at 10 uM incubated for 60 mins by Z'-Lyte assay relative to control"}, "[24]": {"molecular_target": "CDK2/Cyclin A2 (Homo sapiens) (UniProt P24941+P20248)", "assay": "Inhibition of recombinant human His-tagged full length CDK2/Cyclin A expressed in baculovirus expression system using Ser/Thr 12 as substrate at 10 uM incubated for 60 mins by Z'-Lyte assay relative to control"}}, "data": [{"smiles": "CN1C(=O)[C@@H](NC(=O)c2n[nH]c3ncc(C(F)(F)C(F)(F)F)cc23)COc2ccccc21", "values": [{"measurement": "inhibition", "setting": "[1]", "result": 9, "unit": "%"}, {"measurement": "inhibition", "setting": "[2]", "result": 18, "unit": "%"}, {"measurement": "inhibition", "setting": "[3]", "result": -5, "unit": "%"}, {"measurement": "inhibition", "setting": "[4]", "result": -1, "unit": "%"}, {"measurement": "inhibition", "setting": "[5]", "result": 8, "unit": "%"}, {"measurement": "inhibition", "setting": "[6]", "result": -8.5, "unit": "%"}, {"measurement": "inhibition", "setting": "[7]", "result": -3.5, "unit": "%"}, {"measurement": "inhibition", "setting": "[8]", "result": 7, "unit": "%"}, {"measurement": "inhibition", "setting": "[9]", "result": 2.5, "unit": "%"}, {"measurement": "inhibition", "setting": "[10]", "result": 2.5, "unit": "%"}, {"measurement": "EC50", "setting": "[11]", "result": 11, "unit": "µM"}, {"measurement": "inhibition", "setting": "[12]", "result": -5.5, "unit": "%"}, {"measurement": "inhibition", "setting": "[13]", "result": 3, "unit": "%"}, {"measurement": "inhibition", "setting": "[14]", "result": 9, "unit": "%"}, {"measurement": "inhibition", "setting": "[15]", "result": 3, "unit": "%"}, {"measurement": "inhibition", "setting": "[16]", "result": 0.5, "unit": "%"}, {"measurement": "inhibition", "setting": "[17]", "result": -0.5, "unit": "%"}, {"measurement": "inhibition", "setting": "[18]", "result": 0.5, "unit": "%"}, {"measurement": "inhibition", "setting": "[19]", "result": 0.5, "unit": "%"}, {"measurement": "inhibition", "setting": "[20]", "result": 1, "unit": "%"}, {"measurement": "inhibition", "setting": "[21]", "result": 5, "unit": "%"}, {"measurement": "inhibition", "setting": "[22]", "result": -2.5, "unit": "%"}, {"measurement": "inhibition", "setting": "[23]", "result": 0, "unit": "%"}, {"measurement": "inhibition", "setting": "[24]", "result": 13, "unit": "%"}]}]}
